In patent publication US20260234153A1, “NON-COVALENT DIMER CATION OF PURINE/PYRIMIDINE AND AMINO ACID, SALT THEREOF, PREPARATION METHOD THEREFOR, AND USE THEREOF” (Suzhou Protonation Chain Biotechnology Co., Ltd, priority 2023, published 2026):

Assays:
[1] = tested on: GES-1 human gastric mucosal epithelial cells; assay: Ethanol induced damage model of gastric mucosal epithelial cells, cell viability; assay type: cell-based; conditions: GES1, GES-1 cells, 7% ethanol 12 h, then compound concentration 0.5 mg/mL, 24 h
Method: Chronic alcoholics are prone to gastric mucosal damage due to long-term alcohol damage.
The salts of example 51 and example 57 were taken as experimental compounds, and glycyrrhetinic acid was taken as a control compound. A blank control group (without ethanol) and a model group (with ethanol but without the salts of the examples or glycyrrhetinic acid) were set.
The cells were cultured in a complete RPMI 1640 medium for 6 h.
(§1) Then, the cell viability was detected.

[2] = tested on: SH-SY5Y human neuroblastoma cells; assay: Parkinson's disease cell model (6-OHDA), cell viability; assay type: cell-based; conditions: 24 h, read-out: Cell viability (%)
Description: The salts of example 51 and examples 57 were taken as experimental compounds, and selegiline was taken as a control compound.
as §1

| Structure (SMILES) | viability at 500 µg/mL [1] [%] | viability at 500 µg/mL [2] [%] |
| --- | --- | --- |
| CC1(C)[C@@H](O)CC[C@]2(C)[C@H]3C(=O)C=C4[C@@H]5C[C@@](C)(C(=O)O)CC[C@]5(C)CC[C@@]4(C)[C@]3(C)CC[C@@H]12 [Glycyrrhetinic acid, glycyrrhetinic acid] | 61.8 |  |
| C#CCN(C)[C@H](C)Cc1ccccc1 [Selegiline, selegiline] |  | 37.5 |
